The record followed here is ChEMBL document CHEMBL1143609, “Conformationally restricted analogues of psorospermin: design, synthesis, and bioactivity of natural-product-related bisfuranoxanthones” (J Med Chem, 2005).

What all share (format): functional, cell-based
Common to all, as to conditions: Homo sapiens

Assay [1] concerns NCI-H522. The experiment in a line: Inhibitory concentration against H522 cell line.
Assay [2] relates to HT-29. The experiment in a line: Inhibitory concentration against HT-29 cell line.
Assay [3] has as its system HeLa. The experiment in a line: Inhibitory concentration against HeLa cell line.
Assay [4] has as its system HepG2. The experiment in a line: Inhibitory concentration against HepG2 cell line.
Assay [5] relates to COLO 320. The experiment in a line: Inhibitory concentration against COLO 320 cell line.
Assay [6] deals with MIA PaCa-2. The experiment in a line: Inhibitory concentration against MIA PaCa cell line.

Each structure is given as a SMILES string. Some results are limits rather than exact numbers.

The IC50 is the concentration at which inhibition is half-maximal. High values mean weaker potency in that assay, low ones greater potency in that assay. With `COc1cc2c(c3oc4c(O)cccc4c(=O)c13)C[C@H]([C@@]1(C)CO1)O2` [PSOROSPERMIN], the half-maximal inhibitory concentration (IC50) worked out at 0.45 µM in assay [1]; 0.64 µM in assay [2]; 0.71 µM in assay [3]; 0.38 µM in assay [4]; 0.069 µM in assay [5]; 0.21 µM in assay [6].
Take `COc1cccc2c(=O)c3c(O)cc4c(c3oc12)[C@@H]1OC[C@](O)(CCl)[C@@H]1O4`: the IC50 in assay [1] was 7.14 µM; in assay [2], 7.13 µM; in assay [3], 7.5 µM; in assay [4], greater than 30 µM; in assay [5], 0.9 µM; in assay [6], 3.76 µM.
Regarding `COc1cccc2c(=O)c3c(O)cc4c(c3oc12)[C@@H]1OC[C@]2(CO2)[C@@H]1O4`, the IC50 is 19.4 µM in assay [1]; greater than 30 µM in assay [2]; 32.5 µM in assay [3]; 13.1 µM in assay [4]; 9.19 µM in assay [5]; 10.9 µM in assay [6].
For `COc1cccc2c(=O)c3c(O)cc4c(c3oc12)C[C@H]([C@@](C)(O)CO)O4`, the half-maximal inhibitory concentration (IC50) in assay [1] was 28.4 µM; in assay [2], greater than 30 µM; in assay [3], greater than 30 µM; in assay [4] it was greater than 30 µM; in assay [5] it was 19.2 µM; in assay [6], 23.8 µM.
Consider `COc1cccc2c(=O)c3c(O)cc4c(c3oc12)[C@@H]1OC[C@](O)(CO)[C@@H]1O4`, for which the IC50 was 20 µM in assay [1]; 36.7 µM in assay [2]; 19 µM in assay [3]; greater than 30 µM in assay [4]; 12.3 µM in assay [5]; 12.3 µM in assay [6].
Consider `C=C1CO[C@H]2c3c(cc(O)c4c(=O)c5cccc(OC)c5oc34)O[C@@H]12`, for which the IC50 in assay [1], in assay [2], in assay [3], in assay [4], in assay [5] and in assay [6] was greater than 30 µM throughout.
For `COc1cccc2c(=O)c3c(O)cc4c(c3oc12)C[C@H]([C@](C)(O)CO)O4`, the half-inhibitory concentration (IC50) in assay [1], in assay [2], in assay [3], in assay [4], in assay [5] and in assay [6] was greater than 30 µM throughout.
As for `COc1cccc2c(=O)c3c(O)c4c(cc3oc12)O[C@@H]1[C@H]4OC[C@@]1(C)O`, the IC50 in assay [1] was greater than 30 µM; in assay [2], greater than 30 µM; in assay [3], 23.5 µM; in assay [4], greater than 30 µM; in assay [5], greater than 30 µM; in assay [6], greater than 30 µM.
`COc1cccc2c(=O)c3c(O)c4c(cc3oc12)O[C@@H]1[C@H]4OC[C@]1(C)O`: the IC50 in assay [1] is greater than 30 µM; in assay [2], greater than 30 µM; in assay [3], 23.5 µM; in assay [4], greater than 30 µM; in assay [5] it was greater than 30 µM; in assay [6], greater than 30 µM.
